Source: publication PMC2737062 (Bioorganic & medicinal chemistry, 2009)
Entries after “also recorded” stand apart in the source; their conditions may differ. Structures can show the parent of a compound that is named as a salt. Where two headings read alike, the source gives them in different places.

Columns and labels:
[1] = biological target: T1, soybean lipoxygenase-1 (sLO-1) (Glycine max, UniProt P08170); assay type: biochemical; settings: for effect of LO product on the AA:LA ratio: up to 5 μM product
T1 sequence (P08170 1-839): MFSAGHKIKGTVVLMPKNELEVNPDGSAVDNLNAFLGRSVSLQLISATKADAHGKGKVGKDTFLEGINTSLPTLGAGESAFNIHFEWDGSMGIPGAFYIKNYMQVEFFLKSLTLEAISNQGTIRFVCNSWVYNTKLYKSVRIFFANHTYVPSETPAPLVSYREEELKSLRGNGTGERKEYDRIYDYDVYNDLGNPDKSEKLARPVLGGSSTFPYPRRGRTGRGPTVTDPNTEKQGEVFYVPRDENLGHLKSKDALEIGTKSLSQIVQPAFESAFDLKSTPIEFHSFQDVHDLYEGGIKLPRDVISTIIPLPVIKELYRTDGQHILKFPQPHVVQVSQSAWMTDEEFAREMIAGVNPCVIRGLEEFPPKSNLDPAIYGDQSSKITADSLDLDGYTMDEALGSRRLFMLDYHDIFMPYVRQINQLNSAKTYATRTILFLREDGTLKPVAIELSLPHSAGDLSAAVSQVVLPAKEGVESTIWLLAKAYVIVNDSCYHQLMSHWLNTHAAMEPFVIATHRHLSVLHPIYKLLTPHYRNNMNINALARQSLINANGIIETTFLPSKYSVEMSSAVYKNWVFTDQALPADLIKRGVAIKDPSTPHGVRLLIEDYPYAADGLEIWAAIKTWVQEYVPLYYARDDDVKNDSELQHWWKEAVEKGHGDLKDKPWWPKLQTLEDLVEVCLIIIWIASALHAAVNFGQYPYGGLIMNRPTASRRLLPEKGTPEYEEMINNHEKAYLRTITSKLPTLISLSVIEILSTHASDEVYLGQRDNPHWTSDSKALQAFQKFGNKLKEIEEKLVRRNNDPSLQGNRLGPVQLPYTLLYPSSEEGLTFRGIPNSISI

[2] = biological target: T1, soybean lipoxygenase-1 (sLO-1); assay type: biochemical; settings: for effect of LO product on the endogenous substrate mixture ratio ALA:LA: up to 5 μM product addition; for effect of inhibitor on the (kcat/KM)^ALA/(kcat/KM)^LA ratio: inhibitor in excess of its IC50 value
[3] = tested on: 15-hLO-1 (human reticulocyte 15-lipoxygenase); settings: cited from earlier work
[4] = biological target: T1, soybean lipoxygenase-1 (sLO-1); assay: IC50 assay of sLO-1 with PS, OS and OA inhibitors, LA as substrate; assay type: biochemical

In the case of `CCCCC/C=C\C/C=C\C/C=C\C/C=C\CCCC(=O)O` [AA, arachidonic acid], the “(kcat/KM)^AA/(kcat/KM)^LA ratio (substrate specificity, no effector)” value ([1]; AA:LA 1:1, 1 μM total substrate, 100 mM Borate pH 9.2, 22 °C) is reported as 1.8 ± 0.2.

With `CC/C=C\C/C=C\C/C=C\CCCCCCCC(=O)O` [ALA, α-linolenic acid] the “(kcat/KM)^ALA/(kcat/KM)^LA ratio (substrate specificity, no effector)” value ([2]; ALA:LA 1:1, 1 μM total substrate, 100 mM Borate pH 9.2, 22 °C) was 0.75 ± 0.5.

In the case of `CCCCC/C=C\C[C@H](O)/C=C/C=C\C/C=C\CCCC(=O)O` [12-HETE, 12-(S)-hydroxyeicosatetraenoic acid], the “(kcat/KM)^AA/(kcat/KM)^LA ratio of 15-hLO-1” value ([3]; with 12-HETE, increase from 1.8) is listed as 2.7, the “effect of LO product on the endogenous substrate mixture ratio ALA:LA” value [2] is listed as “no effect” and the “(kcat/KM)^AA/(kcat/KM)^LA ratio” value ([1]; addition of 12-HETE (5 μM), control 1.8 ± 0.2) is listed as 2.4 ± 0.2. The “maximum (kcat/KM)^AA/(kcat/KM)^LA ratio at saturating conditions” value ([1]; calculated from saturation curve fit) was 5.1 ± 0.3, the “binding affinity to sLO-1 weaker than to 15-hLO-1” value ([1]; ratio of half saturation points, sLO-1 vs 15-hLO-1) was roughly 30 fold and the “effect on sLO-1 catalysis” value ([1]; saturating amounts at the allosteric site, both AA and LA as substrate) was “inhibit sLO-1”.

With `CC/C=C\C[C@H](O)/C=C/C=C\CCCCCCCC(=O)O` [13-HOTrE] the “effect of LO product on the endogenous substrate mixture ratio ALA:LA” value [2] was “no effect” and the “effect of LO product on the AA:LA ratio” value [1] was “no observable effect”.

In the case of `CCCCCCCC/C=C\CCCCCCCC(=O)O` [OA, oleic acid], the IC50 [4] is reported as 11 ± 3 µM, the “effect of inhibitor on the (kcat/KM)^ALA/(kcat/KM)^LA ratio” value [2] is reported as “none of the inhibitors, OS, OA, or PS, affected” and the “effect of inhibitor on the AA:LA substrate ratio” value ([1]; competitive inhibitor, at IC50 and 5-fold IC50) is reported as “no effect”.

With `CCCCCCCC/C=C\CCCCCCCCOS(=O)(=O)O` [OS, oleyl sulfate] the IC50 [4] was 1 ± 0.1 µM, the “effect of inhibitor on the (kcat/KM)^ALA/(kcat/KM)^LA ratio” value [2] was “none of the inhibitors, OS, OA, or PS, affected” and the AC50 [1] was 1500 ± 300 nM.

In the case of `CCCCC[C@H](O)/C=C/C=C\CCCCCCCC(=O)O` [13-HODE, 13-(S)-hydroxyoctadecadienoic acid], the “(kcat/KM)^AA/(kcat/KM)^LA ratio of 15-hLO-1” value ([3]; 5 μM 13-HODE, increase from 1.4) is given as 2.9, the “effect of LO product on the endogenous substrate mixture ratio ALA:LA” value [2] is given as “no effect” and the “effect of LO product on the AA:LA ratio” value [1] is given as “no observable effect; also recorded: did not display any observable effect”.
